The values that follow come from US10723728B2, “Prodrugs of Nh-acidic compounds” (ALKERMES PHARMA IRELAND LIMITED, priority 2009, dated 2020).

Data set [1] is described as follows: Pharmacokinetic evaluation of prodrugs in rats following intramuscular injection. Type of data set: in vivo, Male Sprague-Dawley rats. The settings on record: rat, IM injection. Here is the method: Male Sprague-Dawley rats (Charles River Laboratories, Wilmington, Mass.) were obtained. Approximately 24 rats were used in each study. Rats were approximately 350-375 g at time of arrival. Rats were housed 2 per cage with ad libitum chow and water. Environmental conditions in the housing room: 64-67 OF, 30% to 70% relative humidity, and 12:12-h light:dark cycle. All experiments were approved by the institutional animal care and use committee.
(§1) Rats were dosed IM by means of a 25 gauge, ⅝ inch needle with 1 cc syringe 0.3 mL suspension was withdrawn from the vial containing the test compound (see Table E). The […] was injected in the muscles of the hind limb after anesthesia with isoflourane. Blood samples were collected via a lateral tail vein after brief anesthesia with Isoflurane. A 27½-G needle and 1 cc syringe without an anticoagulant was used for the blood collection. Approximately 350 μL of whole blood was collected at each sampling time-point of 6 hours, 24 hours and 2, 5, 7, 9, 12, 14, 21, 28, 35 days after administration. Once collected, whole blood was immediately transferred to tubes containing K2 EDTA, inverted 10-15 times and immediately placed on ice. The tubes were centrifuged for 2 minutes at >14,000 g's (11500 RPMs using Eppendorf Centrifuge 5417C, F45-30-11 rotor) at room temperature to separate plasma. Plasma samples were transferred to labeled plain tubes (MICROTAINER®) and stored frozen at <−70° C.
(§2) Drug concentrations in plasma samples were analyzed by liquid chromatography-mass spectroscopy using appropriate parameters for each compound. Half-life, volume of distribution, clearance, maximal concentration, and AUC were calculated by using WinNonlin Version 5.2_software (Pharsight, St. Louis, Mo.).

In data set [2] the test system is D-Amphetamine-induced locomotion. Description: Pharmacodynamic study in amphetamine-induced locomotion model. The settings on record: D-AMPH 1.5 mg/kg IP.
Data set [3] is described as follows: Pharmacokinetic study for pioglitazone, Compounds 1002 and 1008. The note with it: rat, intramuscular; pioglitazone prodrug, crystalline material in 2% CMC, 0.2% Tween 20, PBS buffer pH 6.7; dose 67 mg/kg in table. Type of data set: in vivo, rats. Here is the method: as §1, §2
PK profile of compounds 1002 and 1008 was compared to pioglitazone using a similar model as described above. 20 mg of pioglitazone or 20 mg equivilant of pioglitazone prodrug was administered intramuscularly.

Setting [4] is: crystalline suspension or oil emulsion.
Setting [5] is: solution in ethyl oleate, dose (mg/kg).
Where [6] appears, read: oral oil solution (PO), 0.66, 10 and 20 mg/rat.
The mark [7] stands for this setting: PO, at the higher dose of 20 mg.

On to `CCOC(=O)OCN1C(=O)CCc2ccc(OCCCCN3CCN(c4cccc(Cl)c4Cl)CC3)cc21` [Compound 79, (7-(4-(4-(2,3-dichlorophenyl)piperazin-1-yl)butoxy)-2-oxo-3,4-dihydroquinolin-1(2H)-yl)methyl ethyl carbonate], for which the AUC0-14 in data set [1] (setting [4]) is 907.4 ng·days/mL; in data set [1] (setting [5]), 954 ng·days/mL. Further, the AUC0-T in data set [1] (setting [4]) was 940 ng·days/mL.

With `CCCCCCOC(=O)OCN1C(=O)CCc2ccc(OCCCCN3CCN(c4cccc(Cl)c4Cl)CC3)cc21` [Compound 81, (7-(4-(4-(2,3-dichlorophenyl)piperazin-1-yl)butoxy)-2-oxo-3,4-dihydroquinolin-1(2H)-yl)methyl hexyl carbonate], the AUC0-14 in data set [1] (setting [5]) was 584 ng·days/mL.

With `CCCCCC(=O)OCN1C(=O)CCc2ccc(OCCCCN3CCN(c4cccc(Cl)c4Cl)CC3)cc21` [Compound 4, (7-(4-(4-(2,3-dichlorophenyl)piperazin-1-yl)butoxy)-2-oxo-3,4-dihydroquinolin-1(2H)-yl)methyl hexanoate], in data set [1] (setting [4]), the AUC0-14 came out at 1455.4 ng·days/mL and the AUC0-T was determined as 1678 ng·days/mL. In data set [2] (setting [6]), the “dose dependence of inhibition of distance travelled” value is on record as “did not appear to be dose dependent” and the “inhibition of increase in total distance traveled caused by D-AMPH” value (from here on “inhibition of increase”) is listed as “significantly inhibited the increases in distance traveled caused by D-AMPH”.

For `O=C(OCN1C(=O)CCc2ccc(OCCCCN3CCN(c4cccc(Cl)c4Cl)CC3)cc21)N1CCOCC1` [Compound 49, (7-(4-(4-(2,3-dichlorophenyl)piperazin-1-yl)butoxy)-2-oxo-3,4-dihydroquinolin-1(2H)-yl)methyl morpholine-4-carboxylate], in data set [1] (setting [4]), the AUC0-14 was 152 ng·days/mL and the AUC0-T worked out at 199.7 ng·days/mL.

As to `CCCCCCCCCCCCCCCC(=O)OCN1C(=O)CCc2ccc(OCCCCN3CCN(c4cccc(Cl)c4Cl)CC3)cc21` [Compound 10, (7-(4-(4-(2,3-dichlorophenyl)piperazin-1-yl)butoxy)-2-oxo-3,4-dihydroquinolin-1(2H)-yl)methyl palmitate], in data set [1] (setting [4]), the AUC0-14 stood at 302 ng·days/mL and the AUC0-T amounted to 786.6 ng·days/mL.

As for `CCCC(=O)OCN1C(=O)CCc2ccc(OCCCCN3CCN(c4cccc(Cl)c4Cl)CC3)cc21` [Compound 2, (7-(4-(4-(2,3-dichlorophenyl)piperazin-1-yl)butoxy)-2-oxo-3,4-dihydroquinolin-1(2H)-yl)methyl butyrate], in data set [1] (setting [4]), the AUC0-14 amounted to 1016.9 ng·days/mL and the AUC0-T is 1139.8 ng·days/mL.

`CCCCCCCCCCCC(=O)OCN1C(=O)CCc2ccc(OCCCCN3CCN(c4cccc(Cl)c4Cl)CC3)cc21` [Compound 7, (7-(4-(4-(2,3-dichlorophenyl)piperazin-1-yl)butoxy)-2-oxo-3,4-dihydroquinolin-1(2H)-yl)methyl dodecanoate]: in data set [1] (setting [4]), the AUC0-14 came to 512.0 ng·days/mL and the AUC0-T was 1169.5 ng·days/mL. Besides, in data set [2] (setting [7]), the “inhibition of increase” value was “did appear to significantly inhibit increases in distance traveled caused by D-AMPH”.

As to `CC(C)OC(=O)OCN1C(=O)CCc2ccc(OCCCCN3CCN(c4cccc(Cl)c4Cl)CC3)cc21` [Compound 48, (7-(4-(4-(2,3-dichlorophenyl)piperazin-1-yl)butoxy)-2-oxo-3,4-dihydroquinolin-1(2H)-yl)methyl isopropyl carbonate], in data set [1] (setting [4]), the AUC0-14 was 2238 ng·days/mL and the AUC0-T was determined as 2264.6 ng·days/mL.

For `CNC(=O)OCN1C(=O)CCc2ccc(OCCCCN3CCN(c4cccc(Cl)c4Cl)CC3)cc21` [Compound 47, (7-(4-(4-(2,3-dichlorophenyl)piperazin-1-yl)butoxy)-2-oxo-3,4-dihydroquinolin-1(2H)-yl)methyl methylcarbamate], in data set [1] (setting [4]), the AUC0-14 was 113 ng·days/mL and the AUC0-T came to 176 ng·days/mL. In data set [2] (setting [7]), the “inhibition of increase” value is “did appear to significantly inhibit increases in distance traveled caused by D-AMPH”.

As for `CC(C)CCOC(=O)OCN1C(=O)CCc2ccc(OCCCCN3CCN(c4cccc(Cl)c4Cl)CC3)cc21` [Compound 85, (7-(4-(4-(2,3-dichlorophenyl)piperazin-1-yl)butoxy)-2-oxo-3,4-dihydroquinolin-1(2H)-yl)methyl isopentyl carbonate], in data set [1] (setting [4]), the AUC0-14 stood at 1233.9 ng·days/mL and the AUC0-T was 1348 ng·days/mL.

As for `O=C(OCN1C(=O)CCc2ccc(OCCCCN3CCN(c4cccc(Cl)c4Cl)CC3)cc21)c1ccccc1` [Compound 31, (7-(4-(4-(2,3-dichlorophenyl)piperazin-1-yl)butoxy)-2-oxo-3,4-dihydroquinolin-1(2H)-yl)methyl benzoate], in data set [1] (setting [4]), the AUC0-14 was found to be 819.0 ng·days/mL and the AUC0-T is 997 ng·days/mL.

As to `CCCC(=O)OCN1C(=O)SC(Cc2ccc(OCCc3ccc(CC)cn3)cc2)C1=O` (stereo not shown) [Compound 1002, (5-(4-(2-(5-ethylpyridin-2-yl)ethoxy)benzyl)-2,4-dioxothiazolidin-3-yl)methyl butyrate], in data set [3], the AUC0-14 is 5350 ng·days/mL and the AUC0-T is 5972 ng·days/mL.

`CC(C)C(=O)OCN1C(=O)CCc2ccc(OCCCCN3CCN(c4cccc(Cl)c4Cl)CC3)cc21` [Compound 32, (7-(4-(4-(2,3-dichlorophenyl)piperazin-1-yl)butoxy)-2-oxo-3,4-dihydroquinolin-1(2H)-yl)methyl isobutyrate]: in data set [1] (setting [4]), the AUC0-14 turned out to be 1334.4 ng·days/mL and the AUC0-T amounted to 1486 ng·days/mL.

In the case of `CCCCCCCC(=O)OCN1C(=O)CCc2ccc(OCCCCN3CCN(c4cccc(Cl)c4Cl)CC3)cc21` [Compound 5, (7-(4-(4-(2,3-dichlorophenyl)piperazin-1-yl)butoxy)-2-oxo-3,4-dihydroquinolin-1(2H)-yl)methyl octanoate], in data set [1] (setting [4]), the AUC0-14 is 1728.6 ng·days/mL and the AUC0-T is 1742 ng·days/mL.

For `CC(=O)OCN1C(=O)CCc2ccc(OCCCCN3CCN(c4cccc(Cl)c4Cl)CC3)cc21` [Compound 1, (7-(4-(4-(2,3-dichlorophenyl)piperazin-1-yl)butoxy)-2-oxo-3,4-dihydroquinolin-1(2H)-yl)methyl acetate], in data set [1] (setting [4]), the AUC0-14 was 1673 ng·days/mL and the AUC0-T is 1938 ng·days/mL.

Consider `CCCCCCCCCCCCCCCC(=O)OCN1C(=O)SC(Cc2ccc(OCCc3ccc(CC)cn3)cc2)C1=O` (stereo not shown) [Compound 1008, (5-(4-(2-(5-ethylpyridin-2-yl)ethoxy)benzyl)-2,4-dioxothiazolidin-3-yl)methyl palmitoate], for which, in data set [3], the AUC0-14 came to 5000 ng·days/mL and the AUC0-T was found to be 6763 ng·days/mL.

As for `CCCCCCCCCC(=O)OCN1C(=O)CCc2ccc(OCCCCN3CCN(c4cccc(Cl)c4Cl)CC3)cc21` [Compound 6, (7-(4-(4-(2,3-dichlorophenyl)piperazin-1-yl)butoxy)-2-oxo-3,4-dihydroquinolin-1(2H)-yl)methyl decanoate], the AUC0-14 in data set [1] (setting [4]) is 1490.3 ng·days/mL; in data set [1] (setting [5]) it was 67 ng·days/mL. Besides, the AUC0-T stood at 1678.1 ng·days/mL in data set [1] (setting [4]) and 327 ng·days/mL in data set [1] (setting [5]).

Regarding `CCCCCCCCCCOC(=O)OCN1C(=O)CCc2ccc(OCCCCN3CCN(c4cccc(Cl)c4Cl)CC3)cc21` [Compound 82, decyl (7-(4-(4-(2,3-dichlorophenyl)piperazin-1-yl)butoxy)-2-oxo-3,4-dihydroquinolin-1(2H)-yl)methyl carbonate], the AUC0-14 in data set [1] (setting [5]) stood at 204 ng·days/mL.

As to `O=C(OCN1C(=O)CCc2ccc(OCCCCN3CCN(c4cccc(Cl)c4Cl)CC3)cc21)C1CCC1` [Compound 34, (7-(4-(4-(2,3-dichlorophenyl)piperazin-1-yl)butoxy)-2-oxo-3,4-dihydroquinolin-1(2H)-yl)methyl cyclobutanecarboxylate], in data set [1] (setting [4]), the AUC0-14 amounted to 2050 ng·days/mL and the AUC0-T worked out at 2095.8 ng·days/mL.
